pIC50: −log10 of the molar value.
Tested on: 885512-296-R-J2-PDC complex spheroid growth, % test/control
Assay: Anticancer human tumor 885512-296-R-J2-PDC patient-derived breast carcinoma cell line growth inhibition [AhR]
Conditions: for pIC50: curve of first compound; for viability, T/C: stronger effect = lower value
How it was run: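 Complex tumor spheroids co-cultured with HUVEC and human MSC stroma; AhR antagonists tested in combination with standard-of-care and investigational agents. Top concentration at or near clinical Cmax (else 10 microM), half-log dilutions; growth expressed as percent test/control.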
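Further: spheroids exposed to compounds for seven days.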

## O=C(C=Cn1cnc(-c2cc(C(F)(F)F)cc(C(F)(F)F)c2)n1)NNc1cnccn1 + CC(CO)NC(=O)c1cc(-c2ccc(Cl)cc2)nn(-c2cnn(C)c2)c1=O
Second compound 0.1 µM
  pIC50: 7.20
Second compound 0.316 µM
  pIC50: 7.17
Second compound 1 µM
  pIC50: 7.14
Second compound 3.16 µM
  pIC50: 7.18
Second compound 10 µM
  pIC50: 7.18
Second compound 0.1 µM, first compound 0.00949 µM
  viability, T/C: 91.7%
Second compound 0.1 µM, first compound 0.03 µM
  viability, T/C: 99.7%
Second compound 0.1 µM, first compound 0.0949 µM
  viability, T/C: 24.6%
Second compound 0.1 µM, first compound 0.3 µM
  viability, T/C: 3.85%
Second compound 0.1 µM, first compound 0.949 µM
  viability, T/C: 2.45%
Second compound 0.1 µM, first compound 3 µM
  viability, T/C: 0.96%
Second compound 0.316 µM, first compound 0.00949 µM
  viability, T/C: 101%
Second compound 0.316 µM, first compound 0.03 µM
  viability, T/C: 98.8%
Second compound 0.316 µM, first compound 0.0949 µM
  viability, T/C: 29.1%
Second compound 0.316 µM, first compound 0.3 µM
  viability, T/C: 3.67%
Second compound 0.316 µM, first compound 0.949 µM
  viability, T/C: 1.87%
Second compound 0.316 µM, first compound 3 µM
  viability, T/C: 0.84%
Second compound 1 µM, first compound 0.00949 µM
  viability, T/C: 94.2%
Second compound 1 µM, first compound 0.03 µM
  viability, T/C: 109%
Second compound 1 µM, first compound 0.0949 µM
  viability, T/C: 33.4%
Second compound 1 µM, first compound 0.3 µM
  viability, T/C: 5.46%
Second compound 1 µM, first compound 0.949 µM
  viability, T/C: 1.59%
Second compound 1 µM, first compound 3 µM
  viability, T/C: 0.91%
Second compound 3.16 µM, first compound 0.00949 µM
  viability, T/C: 92.2%
Second compound 3.16 µM, first compound 0.03 µM
  viability, T/C: 111%
Second compound 3.16 µM, first compound 0.0949 µM
  viability, T/C: 25.7%
Second compound 3.16 µM, first compound 0.3 µM
  viability, T/C: 6.14%
Second compound 3.16 µM, first compound 0.949 µM
  viability, T/C: 1.92%
Second compound 3.16 µM, first compound 3 µM
  viability, T/C: 0.85%
Second compound 10 µM, first compound 0.00949 µM
  viability, T/C: 114%
Second compound 10 µM, first compound 0.03 µM
  viability, T/C: 107%
Second compound 10 µM, first compound 0.0949 µM
  viability, T/C: 24.1%
Second compound 10 µM, first compound 0.3 µM
  viability, T/C: 4.61%
Second compound 10 µM, first compound 0.949 µM
  viability, T/C: 2%
Second compound 10 µM, first compound 3 µM
  viability, T/C: 0.87%

## Cn1ncnc1C1c2n[nH]c(=O)c3cc(F)cc(c23)NC1c1ccc(F)cc1 (stereo not given) + Cc1ccccc1N=Nc1ccc(NC(=O)c2ccnn2C)c(C)c1
Second compound 0.1 µM
  pIC50: 7.04
Second compound 0.316 µM
  pIC50: < 7.00
Second compound 1 µM
  pIC50: < 7.00
Second compound 3.16 µM
  pIC50: < 7.00
Second compound 10 µM
  pIC50: > 9.50
Second compound 0.1 µM, first compound 0.000316 µM
  viability, T/C: 85.6%
Second compound 0.1 µM, first compound 0.001 µM
  viability, T/C: 99.2%
Second compound 0.1 µM, first compound 0.00316 µM
  viability, T/C: 89.9%
Second compound 0.1 µM, first compound 0.01 µM
  viability, T/C: 93%
Second compound 0.1 µM, first compound 0.0316 µM
  viability, T/C: 68.7%
Second compound 0.1 µM, first compound 0.1 µM
  viability, T/C: 48.4%
Second compound 0.316 µM, first compound 0.000316 µM
  viability, T/C: 110%
Second compound 0.316 µM, first compound 0.001 µM
  viability, T/C: 94.5%
Second compound 0.316 µM, first compound 0.00316 µM
  viability, T/C: 86%
Second compound 0.316 µM, first compound 0.01 µM
  viability, T/C: 87.7%
Second compound 0.316 µM, first compound 0.0316 µM
  viability, T/C: 76.3%
Second compound 0.316 µM, first compound 0.1 µM
  viability, T/C: 54.9%
Second compound 1 µM, first compound 0.000316 µM
  viability, T/C: 98.5%
Second compound 1 µM, first compound 0.001 µM
  viability, T/C: 82.9%
Second compound 1 µM, first compound 0.00316 µM
  viability, T/C: 96.6%
Second compound 1 µM, first compound 0.01 µM
  viability, T/C: 83.9%
Second compound 1 µM, first compound 0.0316 µM
  viability, T/C: 67.5%
Second compound 1 µM, first compound 0.1 µM
  viability, T/C: 53.8%
Second compound 3.16 µM, first compound 0.000316 µM
  viability, T/C: 77.6%
Second compound 3.16 µM, first compound 0.001 µM
  viability, T/C: 87.5%
Second compound 3.16 µM, first compound 0.00316 µM
  viability, T/C: 93%
Second compound 3.16 µM, first compound 0.01 µM
  viability, T/C: 83.5%
Second compound 3.16 µM, first compound 0.0316 µM
  viability, T/C: 67.4%
Second compound 3.16 µM, first compound 0.1 µM
  viability, T/C: 52.1%
Second compound 10 µM, first compound 0.000316 µM
  viability, T/C: 50.1%
Second compound 10 µM, first compound 0.001 µM
  viability, T/C: 49.9%
Second compound 10 µM, first compound 0.00316 µM
  viability, T/C: 46.5%
Second compound 10 µM, first compound 0.01 µM
  viability, T/C: 47.2%
Second compound 10 µM, first compound 0.0316 µM
  viability, T/C: 50.2%
Second compound 10 µM, first compound 0.1 µM
  viability, T/C: 44.2%
